According to patent US6843784B2, “Triclosan and silver compound containing medical devices” (priority 1999, dated 2005):
“And” between values parts separate entries of the source, which are not always exact repeats. Equal entries are not always repeated. Where two headings read alike, the source gives them in different places.

Test system: S. aureus
Type: cell-based
Experimental: Drug solutions containing 10% ammonia were prepared in ethanol, and 0.1 ml of each solution was added to 0.9 ml of bacterial culture (50% trypticase soy broth +50% Bovine Calf Serum containing 10^8 cfu S. aureus/ml). After 10 minutes, a 0.1 ml aliquot was removed and added to 0.9 ml drug inactivating media (LTSB). […] The colony counts were then determined.

Compound: Oc1cc(Cl)ccc1Oc1ccc(Cl)cc1Cl [Triclosan, 2,4,4′-trichloro-2′-hydroxydiphenyl ether]
- Growth in Culture: 2 × 10^7 cfu/ml and 1.2 × 10^7 cfu/ml
- reduction in growth in culture (0.5 percent triclosan alone (Table 4 experiment)): 0 log
- Growth in Culture (Solution: Triclosan 0.25%, Silver Sulfadiazine 0%, after 10 minutes, control 2.1 × 10^7): 1.2 × 10^7 cfu/ml
- Growth in Culture (Solution: Triclosan 0.5%, Silver Sulfadiazine 0%, after 10 minutes, control 2.1 × 10^7): 1 × 10^7 cfu/ml
- reduction in growth in culture compared to the control (triclosan alone at 0.25 percent (Table 3 experiment)): less than a power of 10
- reduction in growth in culture compared to the control (triclosan alone at 0.5 percent (Table 3 experiment)): less than a power of 10
